The source of these data is patent US9980973B2, “Bicyclic heterocycle compounds and their uses in therapy” (ASTEX THERAPEUTICS LIMITED, priority 2012, dated 2018).

Structures can show the parent of a compound that is named as a salt. Where two headings read alike, the source gives them in different places.

In the assay the test system is EVSA-T (human breast carcinoma). Briefly: Anti-proliferative activity, Alamar Blue assay, EVSA-T. It counts as cell-based. In general terms: Alamar Blue is a resazurin reagent that responds to reducing activity.
Where [1] appears, read: EVSA-T cells, 72 hours, Alamar Blue, dihydrochloride, read-out: EVSA-T prolif.
[2] abbreviates: Homo sapiens, EVSA-T, read-out: EC50 in EVSA-T cell line assays.
Setting [3] is: Homo sapiens, EVSA-T, 72 h, EVSA-T cells, 72 hours, Alamar Blue, read-out: EVSA-T prolif.

For `C[C@@H]1CN(CC(=O)N2CC(C)(C)c3ncc(C(O)c4ccc(F)cc4F)cc32)[C@@H](CN2[C@H](C)COC[C@H]2C)CN1` (single isomer, unassigned) [Example 103, (R or S)-1-[6-[(2,4-Difluorophenyl)(hydroxy)meth-yl]-3,3-dimethyl-1H,2H,3H-pyrrolo[3,2-b]pyridin-1-yl}-2-[(2R,5R)-2-{[(3R,5R)-3,5-dimethylmorpholin-4-yl]methyl}-5-methylpiperazin-1-yl]ethan-1-one dihydrochloride], the EC50 runs as follows: under setting [1], 2.8 nM; under setting [2], under 1000 nM. For the compound `CCCC(O)c1cc2c(cn1)C(C)(C)CN2C(=O)CN1C[C@@H](C)NC[C@@H]1CN1[C@H](C)COC[C@H]1C` (stereo partly drawn) [Example 90, 2-[(2R,5R)-2-{[(3R,5R)-3,5-Dimethylmorpholin-4-yl]methyl}-5-methylpiperazin-1-yl]-1-[6-(1-hydroxybutyl)-3,3-dimethyl-1H,2H,3H-pyrrolo[3,2-c]pyridin-1-yl]ethan-1-one dihydrochloride], the EC50 is 29 nM under setting [3] and under 1000 nM under setting [2]. On to `CC1CS(=O)(=O)CCN1C[C@H]1CN[C@H](C)CN1CC(=O)N1CC(C)(C)c2ncc(Cc3ccc(F)cc3)cc21` (stereo partly drawn) [Example 9, 4-{[(2R,5R)-1-(2-{6-[(4-Fluorophenyl)methyl]-3,3-dimethyl-1H,2H,3H-pyrrolo[3,2-b]pyridin-1-yl}-2-oxoethyl)-5-methylpiperazin-2-yl]methyl}-3-methyl-1λ^6,4-thiomorpholine-1,1-dione dihydrochloride], for which the EC50 under setting [3] amounted to 2.1 nM and the EC50 under setting [2] is under 1000 nM. For `C[C@@H]1CN(CC(=O)N2CC(C)(C)c3ncc(Cc4ccc(F)cc4)cc32)[C@@H](CN2CCOCC2(C)CO)CN1` (stereo partly drawn) [Example 47, 1-{6-[(4-Fluorophenyl)methyl]-3,3-dimethyl-1H,2H,3H-pyrrolo[3,2-b]pyridin-1-yl}-2-[(2R,5R)-2-{[3-(hydroxymethyl)-3-methylmorpholin-4-yl]methyl}-5-methylpiperazin-1-yl]ethan-1-one, dihydrochloride], the EC50 reads like this: under setting [3], 0.9 nM; under setting [2], under 1000 nM. Take `C[C@@H]1CN(CC(=O)N2CC(C)(C)c3cnc(Cc4ccc(F)cc4F)cc32)[C@@H](CN2[C@H](C)COC[C@H]2C)CN1` [Example 63, 1-{6-[(2,4-Difluorophenyl)methyl]-3,3-dimethyl-1H,2H,3H-pyrrolo[3,2-c]pyridin-1-yl}-2-[(2R,5R)-2-{[(3R,5R)-3,5-dimethylmorpholin-4-yl]methyl}-5-methylpiperazin-1-yl]ethan-1-one, dihydrochloride]: the EC50 by setting is: under setting [3], 0.48 nM; under setting [2], under 1000 nM. For the compound `C[C@@H]1CN(CC(=O)N2CC(C)(C)c3ncc(C(O)c4ccc(F)c(F)c4)cc32)[C@@H](CN2[C@H](C)COC[C@H]2C)CN1` (single isomer, unassigned) [Example 110, (R or S)-1-{6-[(3,4-Difluorophenyl)(hydroxy)meth-yl]-3,3-dimethyl-1H,2H,3H-pyrrolo[3,2-b]pyridin-1-yl}-2-[(2R,5R)-2-{[(3R,5R)-3,5-dimethylmorpholin-4-yl]methyl}-5-methylpiperazin-1-yl]ethan-1-one dihydrochloride], the EC50 under setting [1] stood at 2.8 nM.

Regarding `C[C@@H]1CN(CC(=O)N2CC(C)(C)c3ncc(Cc4ccc(F)cc4)cc32)[C@@H](CN2[C@H](CO)COC[C@H]2C)CN1` [Example 37, 1-{6-[(4-Fluorophenyl)methyl]-3,3-dimethyl-1H,2H,3H-pyrrolo[3,2-b]pyridin-1-yl}-2-[(2R,5R)-2-{[(3R,5R)-3-(hydroxymethyl)-5-methylmorpholin-4-yl]methyl}-5-methylpiperazin-1-yl]ethan-1-one, dihydrochloride], the EC50 is, setting by setting: under setting [3], 2.8 nM; under setting [2], under 1000 nM. As for `CC1CC(=O)CCN1C[C@H]1CN[C@H](C)CN1CC(=O)N1CC(C)(C)c2ncc(Cc3ccc(F)cc3)cc21` (single isomer, unassigned) [Example 40, dihydrochloride], the EC50 under setting [1] is 2.8 nM. With `C[C@@H]1CN(CC(=O)N2CC(C)(C)c3ncc(Cc4ccc(F)cc4)cc32)[C@@H](CN2CCOC(C#N)C2)CN1` (stereo partly drawn) [Example 31, 4-{[(2R,5R)-1-(2-{6-[(4-Fluorophenyl)methyl]-3,3-dimethyl-1H,2H,3H-pyrrolo[3,2-b]pyridin-1-yl}-2-oxoethyl)-5-methylpiperazin-2-yl]methyl}morpholine-2-carbonitrile], the EC50 was 1.1 nM under setting [3] and under 1000 nM under setting [2]. Regarding `C[C@@H]1CN(CC(=O)N2CC(C)(C)c3ncc(Cc4ccc(F)cc4)cc32)[C@@H](CN2CCC(O)CC2)CN1` [Example 23, 1-{6-[(4-Fluorophenyl)methyl]-3,3-dimethyl-1H,2H,3H-pyrrolo[3,2-b]pyridin-1-yl}-2-[(2R,5R)-2-[(4-hydroxypiperidin-1-yl)methyl]-5-methylpiperazin-1-yl]ethan-1-one dihydrochloride], the EC50 runs as follows: under setting [3], 3.8 nM; under setting [2], under 1000 nM.

With `C[C@@H]1CN(CC(=O)N2CC(C)(C)c3ncc(Cc4ccc(F)cc4)cc32)[C@@H](CN2CCn3cnnc3C2)CN1` [Example 71, 1-{6-[(4-Fluorophenyl)methyl]-3,3-dimethyl-1H,2H,3H-pyrrolo[3,2-b]pyridin-1-yl}-2-[(2R,5R)-5-methyl-2-{5H, 6H, 7H, 8H-[1,2,4]triazolo[4,3-a]pyrazin-7-ylmethyl}piperazin-1-yl]ethan-1-one dihydrochloride], the EC50 is, setting by setting: under setting [3], 98 nM; under setting [2], under 1000 nM.

Turning to `C[C@@H]1CN(CC(=O)N2CC(C)(C)c3ncc(C(O)c4cc(F)ccc4F)cc32)[C@@H](CN2[C@H](C)COC[C@H]2C)CN1` (single isomer, unassigned) [Example 115, 1-{(R or S)-6-[(2,5-Difluorophenyl)(hydroxy)meth-yl]-3,3-dimethyl-1H,2H,3H-pyrrolo[3,2-b]pyridin-1-yl}-2-[(2R,5R)-2-{[(3R,5R)-3,5-dimethylmorpholin-4-yl]methyl}-5-methylpiperazin-1-yl]ethan-1-one dihydrochloride], the EC50 is 9.5 nM under setting [1] and under 1000 nM under setting [2]. In the case of `C[C@@H]1CN(CC(=O)N2CC(C)(C)c3ncc(Cc4ccc(F)cc4)cc32)[C@@H](CN2CCOCC2(C)C)CN1` [Example 5, 2-[(2R,5R)-2-[(3,3-Dimethylmorpholin-4-yl)methyl]-5-methylpiperazin-1-yl]-1-{6-[(4-fluorophenyl)methyl]-3,3-dimethyl-1H,2H,3H-pyrrolo[3,2-b]pyridin-1-yl}ethan-1-one dihydrochloride], the EC50 runs as follows: under setting [3], 0.3 nM; under setting [2], under 1000 nM. For the compound `C[C@@H]1CN(CC(=O)N2CC(C)(C)c3ncc(Cc4ccc(F)cc4)cc32)[C@@H](CN2CCC[C@H]2CF)CN1` [Example 30, 2-[(2R,5R)-2-{[(2S)-2-(Fluoromethyl)pyrrolidin-1-yl]methyl}-5-methylpiperazin-1-yl]-1-{6-[(4-fluorophenyl)methyl]-3,3-dimethyl-1H,2H,3H-pyrrolo[3,2-b]pyridin-1-yl}ethan-1-one dihydrochloride], the EC50 reads like this: under setting [3], 1.2 nM; under setting [2], under 1000 nM. On the same counts, the results for `CC(=O)N1CCN(C[C@H]2CN[C@H](C)CN2CC(=O)N2CC(C)(C)c3ncc(Cc4ccc(F)cc4)cc32)C(C)C1` (mixture of isomers) [Example 33, 2-[(2R,5R)-2-[(4-Acetyl-2-methylpiperazin-1-yl)methyl]-5-methylpiperazin-1-yl]-1-{6-[(4-fluorophenyl)methyl]-3,3-dimethyl-1H,2H,3H-pyrrolo[3,2-b]pyridin-1-yl}ethan-1-one dihydrochloride] are 0.46 nM and under 1000 nM. With `C[C@@H]1CN(CC(=O)N2CC(C)(C)c3ncc(C(O)c4ccc(F)c(F)c4)cc32)[C@@H](CN2[C@H](C)COC[C@H]2C)CN1` (single isomer, unassigned) [Example 109, (R or S)-1-{6-[(3,4-Difluorophenyl)(hydroxy)meth-yl]-3,3-dimethyl-1H,2H,3H-pyrrolo[3,2-b]pyridin-1-yl}-2-[(2R,5R)-2-{[(3R,5R)-3,5-dimethylmorpholin-4-yl]methyl}-5-methylpiperazin-1-yl]ethan-1-one dihydrochloride], the EC50 was 9.7 nM under setting [1] and under 1000 nM under setting [2]. On to `C[C@@H]1CN(CC(=O)N2CC(C)(C)c3ncc(C(O)c4ccccc4)cc32)[C@@H](CN2[C@H](C)COC[C@H]2C)CN1` (single isomer, unassigned) [Example 114, 2-[(2R,5R)-2-{[(3R,5R)-3,5-Dimethymorpholin-4-yl]methyl}-5-methylpiperazin-1-yl]-1-{(R or S)-6-[hydroxy(phenyl)methyl]-3,3-dimethyl-1H,2H,3H-pyrrolo[3,2-b]pyridin-1-yl}ethan-1-one dihydrochloride], for which, under setting [1], the EC50 was determined as 24 nM. As for `C[C@@H]1CN(CC(=O)N2CC(C)(C)c3ncc(Cc4ccc(F)cc4)cc32)[C@@H](CN2CCOCC23CC3)CN1` [Example 10, 1-{6-[(4-Fluorophenyl)methyl]-3,3-dimethyl-1H,2H,3H-pyrrolo[3,2-b]pyridin-1-yl}-2-[(2R,5R)-5-methyl-2-{7-oxa-4-azaspiro[2.5]octan-4-ylmethyl}piperazin-1-yl]ethan-1-one dihydrochloride], the EC50 under setting [3] came out at 0.42 nM and the EC50 under setting [2] was under 1000 nM. Consider `CCCC(F)(F)c1cc2c(cn1)C(C)(C)CN2C(=O)CN1C[C@@H](C)NC[C@@H]1CN1[C@H](C)CN(C(C)=O)C[C@@H]1C` [Example 93, 2-[(2R,5R)-2-{[(2R,6S)-4-Acetyl-2,6-dimethylpiperazin-1-yl]methyl}-5-methylpiperazin-1-yl]-1-[6-(1,1-difluorobutyl)-3,3-dimethyl-1H,2H,3H-pyrrolo[3,2-c]pyridin-1-yl]ethan-1-one dihydrochloride], for which the EC50 by setting is: under setting [3], 7.1 nM; under setting [2], under 1000 nM. The like results for `C[C@@H]1CN(CC(=O)N2CC(C)(C)c3c2cc(Cc2ccc(F)cc2)c[n+]3[O-])[C@@H](CN2[C@H](C)COC[C@H]2C)CN1` [Example 121, 1-{2-[(2R,5R)-2-{[(3R,5R)-3,5-Dimethylmorpholin-4-yl]methyl}-5-methylpiperazin-1-yl]acetyl}-6-[(4-fluorophenyl)methyl]-3,3-dimethyl-1H,2H,3H-pyrrolo[3,2-b]-pyridin-4-oxide dihydrochloride] were, in that order, 0.37 nM and under 1000 nM.
